In ChEMBL document CHEMBL3885861, “Open TG-GATES”:

Organism: Rattus norvegicus
Experiment: Open TG-GATES - Regimen: Single
Type: toxicity, organism-based, Sprague-Dawley
Set-up: regimen Single, gender Male, age 6 weeks
Settings: in vivo, po, 6 mg/kg, route gavage, dose level Low; for APTT / Bas / Eos / Fbg / Hb / Ht / Lym / MCH / MCHC / MCV / Mono / Neu / PT / Plat / RBC / Ret / WBC: tissue Blood; for KIDNEY_L / KIDNEY_R / KIDNEY_TOTAL: tissue Kidney; for LIVER: tissue Liver; for A/G / ALP / ALT / AST / BUN / CRE / Ca / Cl / DBIL / GLC / IP / K / LDH / Na / PL / RALB / TBIL / TC / TG / TP / gamma-GTP: tissue Plasma

CC(C)NNC(=O)c1ccncc1 [IPRONIAZID]
TERMINAL_BW (3 h): 204.8 g | APTT (3 h): 22.1 s | Bas (3 h): 0% | Eos (3 h): 1% | Fbg (3 h): 317 mg/dL | Hb (3 h): 13.4 g/dL | Ht (3 h): 38.8% | Lym (3 h): 77% | MCH (3 h): 21.1 pg | MCHC (3 h): 34.5% | MCV (3 h): 61.2 fL | Mono (3 h): 1.8% | Neu (3 h): 20% | PT (3 h): 16.3 s | Plat (3 h): 129.7 x10_4/uL | RBC (3 h): 634.8 x10_4/ul | Ret (3 h): 7.5% | WBC (3 h): 72.5 x10_2/uL | KIDNEY_L (3 h): 1 g | KIDNEY_R (3 h): 1 g | KIDNEY_TOTAL (3 h): 2 g | LIVER (3 h): 9.7 g | A/G (3 h): 1.2 | ALP (3 h): 1455.8 IU/L | ALT (3 h): 40.8 IU/L | AST (3 h): 83.8 IU/L | BUN (3 h): 13.4 mg/dL | CRE (3 h): 0.1 mg/dL | Ca (3 h): 10.6 mg/dL | Cl (3 h): 106.8 meq/L | DBIL (3 h): 0.002 mg/dL | GLC (3 h): 187.2 mg/dL | IP (3 h): 9 mg/dL | K (3 h): 4.1 meq/L | LDH (3 h): 208.2 IU/L | Na (3 h): 142 meq/L | PL (3 h): 132.4 mg/dL | RALB (3 h): 3.1 g/dL | TBIL (3 h): 0.016 mg/dL | TC (3 h): 67 mg/dL | TG (3 h): 73.2 mg/dL | TP (3 h): 5.6 g/dL | gamma-GTP (3 h): 1.4 IU/L | TERMINAL_BW (6 h): 201.3 g | APTT (6 h): 22.8 s | Bas (6 h): 0% | Eos (6 h): 0.6% | Fbg (6 h): 317 mg/dL | Hb (6 h): 13.1 g/dL | Ht (6 h): 38.4% | Lym (6 h): 78.8% | MCH (6 h): 20.9 pg | MCHC (6 h): 34.1% | MCV (6 h): 61.2 fL | Mono (6 h): 2.2% | Neu (6 h): 17.8% | PT (6 h): 15.6 s | Plat (6 h): 118.4 x10_4/uL | RBC (6 h): 627.2 x10_4/ul | Ret (6 h): 7.4% | WBC (6 h): 69.8 x10_2/uL | KIDNEY_L (6 h): 0.9 g | KIDNEY_R (6 h): 0.9 g | KIDNEY_TOTAL (6 h): 1.9 g | LIVER (6 h): 8.9 g | A/G (6 h): 1.2 | ALP (6 h): 1305.2 IU/L | ALT (6 h): 36.8 IU/L | AST (6 h): 73.2 IU/L | BUN (6 h): 9.6 mg/dL | CRE (6 h): 0.2 mg/dL | Ca (6 h): 10.6 mg/dL | Cl (6 h): 106.8 meq/L | DBIL (6 h): 0.002 mg/dL | GLC (6 h): 182.4 mg/dL | IP (6 h): 9.2 mg/dL | K (6 h): 4.3 meq/L | LDH (6 h): 225.2 IU/L | Na (6 h): 141.6 meq/L | PL (6 h): 135.2 mg/dL | RALB (6 h): 3.1 g/dL | TBIL (6 h): 0.014 mg/dL | TC (6 h): 74.2 mg/dL | TG (6 h): 62.2 mg/dL | TP (6 h): 5.5 g/dL | gamma-GTP (6 h): 1 IU/L | TERMINAL_BW (9 h): 205.8 g | APTT (9 h): 22 s | Bas (9 h): 0% | Eos (9 h): 1% | Fbg (9 h): 323.2 mg/dL | Hb (9 h): 13.2 g/dL | Ht (9 h): 38.7% | Lym (9 h): 77.8% | MCH (9 h): 20.8 pg | MCHC (9 h): 34.1% | MCV (9 h): 60.9 fL | Mono (9 h): 2% | Neu (9 h): 18.6% | PT (9 h): 15.8 s | Plat (9 h): 120.2 x10_4/uL | RBC (9 h): 635.6 x10_4/ul | Ret (9 h): 7.8% | WBC (9 h): 99.2 x10_2/uL | KIDNEY_L (9 h): 0.9 g | KIDNEY_R (9 h): 1 g | KIDNEY_TOTAL (9 h): 1.9 g | LIVER (9 h): 8.7 g | A/G (9 h): 1.2 | ALP (9 h): 1353 IU/L | ALT (9 h): 37.2 IU/L | AST (9 h): 72 IU/L | BUN (9 h): 12.8 mg/dL | CRE (9 h): 0.2 mg/dL | Ca (9 h): 10.4 mg/dL | Cl (9 h): 106.8 meq/L | DBIL (9 h): 0.004 mg/dL | GLC (9 h): 178.8 mg/dL | IP (9 h): 10 mg/dL | K (9 h): 4.2 meq/L | LDH (9 h): 172.6 IU/L | Na (9 h): 141.4 meq/L | PL (9 h): 130.6 mg/dL | RALB (9 h): 3 g/dL | TBIL (9 h): 0.014 mg/dL | TC (9 h): 74 mg/dL | TG (9 h): 72.2 mg/dL | TP (9 h): 5.5 g/dL | gamma-GTP (9 h): 1.4 IU/L | TERMINAL_BW (24 h): 218.2 g | APTT (24 h): 21.7 s | Bas (24 h): 0% | Eos (24 h): 1% | Fbg (24 h): 323.4 mg/dL | Hb (24 h): 13.2 g/dL | Ht (24 h): 38.3% | Lym (24 h): 83.8% | MCH (24 h): 21.2 pg | MCHC (24 h): 34.5% | MCV (24 h): 61.3 fL | Mono (24 h): 2.6% | Neu (24 h): 12.2% | PT (24 h): 16.6 s | Plat (24 h): 119.6 x10_4/uL | RBC (24 h): 624 x10_4/ul | Ret (24 h): 7.1% | WBC (24 h): 95 x10_2/uL | KIDNEY_L (24 h): 1 g | KIDNEY_R (24 h): 1 g | KIDNEY_TOTAL (24 h): 1.9 g | LIVER (24 h): 10.2 g | A/G (24 h): 1.2 | ALP (24 h): 1506.4 IU/L | ALT (24 h): 43.2 IU/L | AST (24 h): 74.6 IU/L | BUN (24 h): 15.2 mg/dL | CRE (24 h): 0.2 mg/dL | Ca (24 h): 10.7 mg/dL | Cl (24 h): 106.4 meq/L | DBIL (24 h): 0.004 mg/dL | GLC (24 h): 179.8 mg/dL | IP (24 h): 7.4 mg/dL | K (24 h): 4.6 meq/L | LDH (24 h): 255 IU/L | Na (24 h): 141.6 meq/L | PL (24 h): 148.8 mg/dL | RALB (24 h): 3 g/dL | TBIL (24 h): 0.008 mg/dL | TC (24 h): 83.2 mg/dL | TG (24 h): 98.8 mg/dL | TP (24 h): 5.5 g/dL | gamma-GTP (24 h): 1.6 IU/L
